The source made the active and inactive calls. No rule for the calls is given here.
Tested on: CCRIS mutagenicity, Ames/micronucleus/aberration tests
Test: CCRIS mutagenicity studies
[1] = Test System: AMES SALMONELLA TYPHIMURIUM, Strain/Indicator: TA98, Metabolic Activation: NONE, Method: PREINCUBATION
[2] = Test System: AMES SALMONELLA TYPHIMURIUM, Strain/Indicator: TA100, Metabolic Activation: NONE, Method: PREINCUBATION

`O` was tested, and the mutagenic call (End Point: In vitro chromosomal aberrations, Test System: D824 human dental pulp cells, Metabolic Activation: None) was “inactive; negative”, the mutagenic call (End Point: In vitro chromosomal aberrations, Test System: D824 human dental pulp cells, Metabolic Activation: Rat, Liver, Postmitochondrial supernate (5%)) was “inactive; negative” and the mutagenic call (Test System: AMES SALMONELLA TYPHIMURIUM, Strain/Indicator: TA97, Metabolic Activation: HAMSTER, LIVER, S-9, AROCLOR 1254 (10 OR 30%), Method: PREINCUBATION) was “inactive; negative”. The mutagenic call (Test System: AMES SALMONELLA TYPHIMURIUM, Strain/Indicator: TA97, Metabolic Activation: NONE, Method: PREINCUBATION) was “inactive; negative”, the mutagenic call (Test System: AMES SALMONELLA TYPHIMURIUM, Strain/Indicator: TA97, Metabolic Activation: RAT, LIVER, S-9, AROCLOR 1254 (10 OR 30%), Method: PREINCUBATION) was “inactive; negative” and the mutagenic call (Test System: AMES SALMONELLA TYPHIMURIUM, Strain/Indicator: TA97, Metabolic Activation: RAT, LIVER, S-9, AROCLOR 1254, Method: PREINCUBATION) was “inactive; negative”. The mutagenic call (Test System: AMES SALMONELLA TYPHIMURIUM, Strain/Indicator: TA98, Metabolic Activation: HAMSTER, LIVER, S-9, AROCLOR 1254 (10 OR 30%), Method: PREINCUBATION) was “inactive; negative”, the mutagenic call [1] was “inactive; negative” and the mutagenic call (Test System: AMES SALMONELLA TYPHIMURIUM, Strain/Indicator: TA98, Metabolic Activation: RAT LIVER S-9, PHENOBARBITAL AND BETA-NAPHTHOFLAVONE, Method: PREINCUBATION) was “inactive; negative”. For the same compound, the mutagenic call (Test System: AMES SALMONELLA TYPHIMURIUM, Strain/Indicator: TA98, Metabolic Activation: RAT, LIVER, S-9, AROCLOR 1254 (10 OR 30%), Method: PREINCUBATION) was “inactive; negative”, the mutagenic call (Test System: AMES SALMONELLA TYPHIMURIUM, Strain/Indicator: TA98, Metabolic Activation: RAT, LIVER, S-9, PHENOBARBITAL AND BETA-NAPHTHOFLAVONE, Method: PREINCUBATION) was “inactive; negative” and the mutagenic call (Test System: AMES SALMONELLA TYPHIMURIUM, Strain/Indicator: TA100, Metabolic Activation: HAMSTER, LIVER, S-9, AROCLOR 1254 (10 OR 30%), Method: PREINCUBATION) was “inactive; negative”. For the same compound, the mutagenic call [2] was “inactive; negative”, the mutagenic call (Test System: AMES SALMONELLA TYPHIMURIUM, Strain/Indicator: TA100, Metabolic Activation: RAT LIVER S-9, PHENOBARBITAL AND BETA-NAPHTHOFLAVONE, Method: PREINCUBATION) was “inactive; negative” and the mutagenic call (Test System: AMES SALMONELLA TYPHIMURIUM, Strain/Indicator: TA100, Metabolic Activation: RAT, LIVER, S-9, AROCLOR 1254 (10 OR 30%), Method: PREINCUBATION) was “inactive; negative”. For the same compound, the mutagenic call (Test System: AMES SALMONELLA TYPHIMURIUM, Strain/Indicator: TA100, Metabolic Activation: RAT, LIVER, S-9, PHENOBARBITAL AND BETA-NAPHTHOFLAVONE, Method: PREINCUBATION) was “inactive; negative”, the mutagenic call (Test System: AMES SALMONELLA TYPHIMURIUM, Strain/Indicator: TA102, Metabolic Activation: NONE, Method: PREINCUBATION) was “inactive; negative” and the mutagenic call (Test System: AMES SALMONELLA TYPHIMURIUM, Strain/Indicator: TA102, Metabolic Activation: RAT, LIVER, S-9, AROCLOR 1254, Method: PREINCUBATION) was “inactive; negative”. For the same compound, the mutagenic call (Test System: AMES SALMONELLA TYPHIMURIUM, Strain/Indicator: TA104, Metabolic Activation: NONE, Method: PREINCUBATION) was “inactive; negative”, the mutagenic call (Test System: AMES SALMONELLA TYPHIMURIUM, Strain/Indicator: TA104, Metabolic Activation: RAT, LIVER, S-9, SODIUM PHENOBARBITAL AND 5,6-BENZOFLAVONE, Method: PREINCUBATION) was “inactive; negative” and the mutagenic call (Test System: AMES SALMONELLA TYPHIMURIUM, Strain/Indicator: TA1535, Metabolic Activation: HAMSTER, LIVER, S-9, AROCLOR 1254 (10 OR 30%), Method: PREINCUBATION) was “inactive; negative”. The mutagenic call (Test System: AMES SALMONELLA TYPHIMURIUM, Strain/Indicator: TA1535, Metabolic Activation: NONE, Method: PREINCUBATION) was “inactive; negative”, the mutagenic call (Test System: AMES SALMONELLA TYPHIMURIUM, Strain/Indicator: TA1535, Metabolic Activation: RAT LIVER S-9, PHENOBARBITAL AND BETA-NAPHTHOFLAVONE, Method: PREINCUBATION) was “inactive; negative” and the mutagenic call (Test System: AMES SALMONELLA TYPHIMURIUM, Strain/Indicator: TA1535, Metabolic Activation: RAT, LIVER, S-9, AROCLOR 1254 (10 OR 30%), Method: PREINCUBATION) was “inactive; negative”. The mutagenic call (Test System: AMES SALMONELLA TYPHIMURIUM, Strain/Indicator: TA1535, Metabolic Activation: RAT, LIVER, S-9, PHENOBARBITAL AND BETA-NAPHTHOFLAVONE, Method: PREINCUBATION) was “inactive; negative”, the mutagenic call (Test System: AMES SALMONELLA TYPHIMURIUM, Strain/Indicator: TA1537, Metabolic Activation: HAMSTER, LIVER, S-9, AROCLOR 1254 (30%), Method: PREINCUBATION) was “inactive; negative” and the mutagenic call (Test System: AMES SALMONELLA TYPHIMURIUM, Strain/Indicator: TA1537, Metabolic Activation: NONE, Method: PREINCUBATION) was “inactive; negative”. The mutagenic call (Test System: AMES SALMONELLA TYPHIMURIUM, Strain/Indicator: TA1537, Metabolic Activation: RAT LIVER S-9, PHENOBARBITAL AND BETA-NAPHTHOFLAVONE, Method: PREINCUBATION) was “inactive; negative”, the mutagenic call (Test System: AMES SALMONELLA TYPHIMURIUM, Strain/Indicator: TA1537, Metabolic Activation: RAT, LIVER, S-9, AROCLOR 1254 (30%), Method: PREINCUBATION) was “inactive; negative” and the mutagenic call (Test System: AMES SALMONELLA TYPHIMURIUM, Strain/Indicator: TA1537, Metabolic Activation: RAT, LIVER, S-9, PHENOBARBITAL AND BETA-NAPHTHOFLAVONE, Method: PREINCUBATION) was “inactive; negative”. For the same compound, the mutagenic call (Test System: AMES SALMONELLA TYPHIMURIUM, Strain/Indicator: TA1538, Metabolic Activation: NONE, Method: PREINCUBATION) was “inactive; negative”, the mutagenic call (Test System: AMES SALMONELLA TYPHIMURIUM, Strain/Indicator: TA1538, Metabolic Activation: RAT LIVER S-9, PHENOBARBITAL AND BETA-NAPHTHOFLAVONE, Method: PREINCUBATION) was “inactive; negative” and the mutagenic call (Test System: E. COLI, Strain/Indicator: WP2UVRA/PKM101, Metabolic Activation: NONE, Method: PREINCUBATION) was “inactive; negative”. The mutagenic call (Test System: E. COLI, Strain/Indicator: WP2UVRA/PKM101, Metabolic Activation: RAT, LIVER, S-9, SODIUM PHENOBARBITAL AND 5,6-BENZOFLAVONE, Method: PREINCUBATION) was “inactive; negative”, the mutagenic call (Test System: E. COLI, Strain/Indicator: WP2UVRA, Metabolic Activation: NONE, Method: PREINCUBATION) was “inactive; negative” and the mutagenic call (Test System: E. COLI, Strain/Indicator: WP2UVRA, Metabolic Activation: RAT, LIVER, S-9, SODIUM PHENOBARBITAL AND 5,6-BENZOFLAVONE, Method: PREINCUBATION) was “inactive; negative”. The mutagenic call (Test System: E.COLI, Strain/Indicator: WP2UVRA, Metabolic Activation: NONE, Method: PREINCUBATION) was “inactive; negative”, the mutagenic call (Test System: E.COLI, Strain/Indicator: WP2UVRA, Metabolic Activation: RAT LIVER S-9, PHENOBARBITAL AND BETA-NAPHTHOFLAVONE, Method: PREINCUBATION) was “inactive; negative” and the mutagenic call (Test System: MOUSE LYMPHOMA, Strain/Indicator: L5178Y (TK+/TK-), Metabolic Activation: NONE, Method: SUSPENSION/PLATE) was “inactive; negative”. The mutagenic call (Test System: MOUSE LYMPHOMA, Strain/Indicator: L5178Y (TK+/TK-), Metabolic Activation: RAT, LIVER, S-9, AROCLOR 1254, Method: SUSPENSION/PLATE) was “active; positive”.
For `c1scc2c1-c1cscc1C1NC21` (stereo unspecified), the mutagenic call (Test System: AMES SALMONELLA TYPHIMURIUM, Strain/Indicator: TA98, Metabolic Activation: NONE, Method: STANDARD PLATE) was “active; positive” and the mutagenic call (Test System: AMES SALMONELLA TYPHIMURIUM, Strain/Indicator: TA100, Metabolic Activation: NONE, Method: STANDARD PLATE) was “active; positive”.
For `O[C@H]1[C@H]2O[C@H]2c2c(ccc3cc4c(ccc5ccccc54)nc23)[C@@H]1O`, the mutagenic call [1] was “active; positive”, the mutagenic call [2] was “active; positive” and the mutagenic call (Test System: CHINESE HAMSTER V-79, Strain/Indicator: V-79/8-AZAGUANINE, Metabolic Activation: NONE) was “active; positive”.
With `ClCc1c2ccccc2cc2ccccc12` the mutagenic call [1] was “active; positive”, the mutagenic call (Test System: AMES SALMONELLA TYPHIMURIUM, Strain/Indicator: TA98, Metabolic Activation: RAT, LIVER, S-9, PCB, Method: PREINCUBATION) was “active; positive” and the mutagenic call [2] was “active; positive”. For the same compound, the mutagenic call (Test System: AMES SALMONELLA TYPHIMURIUM, Strain/Indicator: TA100, Metabolic Activation: RAT, LIVER, S-9, PCB, Method: PREINCUBATION) was “active; positive”.
With `C=C(Br)CCl` the mutagenic call (Test System: AMES SALMONELLA TYPHIMURIUM, Strain/Indicator: TA100, Metabolic Activation: RAT, LIVER, MICROSOMES, PHENOBARBITAL, NADPH COFACTORS, Method: STANDARD PLATE) was “active; positive” and the mutagenic call (Test System: AMES SALMONELLA TYPHIMURIUM, Strain/Indicator: TA100, Metabolic Activation: RAT, LIVER, MICROSOMES, PHENOBARBITAL, Method: STANDARD PLATE) was “inactive; negative”.

— PubChem BioAssay AID1259407 (Chemical Carcinogenesis Research Information System (CCRIS), 2018)
